# ChEMBL document CHEMBL1124718, “Synthesis and structure-activity relationship of C5-substituted analogues of (+-)-10,11-dihydro-5H-dibenzo[a,d]cyclohepten-5,10-imine [(+-)-desmethyl-MK801]: ligands for the NMDA receptor-coupled phencyclidine binding site” (J Med Chem, 1990)
# Molecular target: Glutamate receptor ionotropic, NMDA 1 (Rattus norvegicus, UniProt P35439)
# Assay: Ability to displace [3H]TCP from high affinity PCP N-methyl-D-aspartate glutamate receptor in rat brain homogenates in vitro was determined
# Type: tissue-based
row,Compound,Ki
1,CCCCCCC12NC(Cc3ccccc31)c1ccccc12 (configuration not stated),980 nM
2,NCC12NC(Cc3ccccc31)c1ccccc12 (configuration not stated),117 nM
3,N#CCC12NC(Cc3ccccc31)c1ccccc12 (configuration not stated),967 nM
4,OCC12NC(Cc3ccccc31)c1ccccc12 (configuration not stated),40 nM
5,c1ccc2c(c1)CC1NC2c2ccccc21 (configuration not stated),120 nM
6,CCCC12NC(Cc3ccccc31)c1ccccc12 (configuration not stated),1100 nM
7,NC(=O)C12NC(Cc3ccccc31)c1ccccc12 (configuration not stated),11300 nM
8,IC12NC(Cc3ccccc31)c1ccccc12 (configuration not stated),430 nM
9,C=CCC12NC(Cc3ccccc31)c1ccccc12 (configuration not stated),70 nM
10,BrCC12NC(Cc3ccccc31)c1ccccc12 (configuration not stated),33 nM
11,ClCC12NC(Cc3ccccc31)c1ccccc12 (configuration not stated),12 nM
12,NCCC12NC(Cc3ccccc31)c1ccccc12 (configuration not stated),20 nM
13,COCC12NC(Cc3ccccc31)c1ccccc12 (configuration not stated),300 nM
14,c1ccc(COCC23NC(Cc4ccccc42)c2ccccc23)cc1 (configuration not stated),10000 nM
15,CCCCCCCCCCC12NC(Cc3ccccc31)c1ccccc12 (configuration not stated),21600 nM
16,CCC12NC(Cc3ccccc31)c1ccccc12 (configuration not stated),12 nM
17,O=C(O)C12NC(Cc3ccccc31)c1ccccc12 (configuration not stated),32300 nM
